The text below walks through data of patent US20210317134A1, “UBIQUITIN-SPECIFIC-PROCESSING PROTEASE 7 (USP7) MODULATORS AND USES THEREOF” (RAPT THERAPEUTICS, INC., priority 2019, published 2021).

Molecules are shown by their SMILES. Some results are limits rather than exact numbers.

Sequence of USP7 (Q93009 whole entry): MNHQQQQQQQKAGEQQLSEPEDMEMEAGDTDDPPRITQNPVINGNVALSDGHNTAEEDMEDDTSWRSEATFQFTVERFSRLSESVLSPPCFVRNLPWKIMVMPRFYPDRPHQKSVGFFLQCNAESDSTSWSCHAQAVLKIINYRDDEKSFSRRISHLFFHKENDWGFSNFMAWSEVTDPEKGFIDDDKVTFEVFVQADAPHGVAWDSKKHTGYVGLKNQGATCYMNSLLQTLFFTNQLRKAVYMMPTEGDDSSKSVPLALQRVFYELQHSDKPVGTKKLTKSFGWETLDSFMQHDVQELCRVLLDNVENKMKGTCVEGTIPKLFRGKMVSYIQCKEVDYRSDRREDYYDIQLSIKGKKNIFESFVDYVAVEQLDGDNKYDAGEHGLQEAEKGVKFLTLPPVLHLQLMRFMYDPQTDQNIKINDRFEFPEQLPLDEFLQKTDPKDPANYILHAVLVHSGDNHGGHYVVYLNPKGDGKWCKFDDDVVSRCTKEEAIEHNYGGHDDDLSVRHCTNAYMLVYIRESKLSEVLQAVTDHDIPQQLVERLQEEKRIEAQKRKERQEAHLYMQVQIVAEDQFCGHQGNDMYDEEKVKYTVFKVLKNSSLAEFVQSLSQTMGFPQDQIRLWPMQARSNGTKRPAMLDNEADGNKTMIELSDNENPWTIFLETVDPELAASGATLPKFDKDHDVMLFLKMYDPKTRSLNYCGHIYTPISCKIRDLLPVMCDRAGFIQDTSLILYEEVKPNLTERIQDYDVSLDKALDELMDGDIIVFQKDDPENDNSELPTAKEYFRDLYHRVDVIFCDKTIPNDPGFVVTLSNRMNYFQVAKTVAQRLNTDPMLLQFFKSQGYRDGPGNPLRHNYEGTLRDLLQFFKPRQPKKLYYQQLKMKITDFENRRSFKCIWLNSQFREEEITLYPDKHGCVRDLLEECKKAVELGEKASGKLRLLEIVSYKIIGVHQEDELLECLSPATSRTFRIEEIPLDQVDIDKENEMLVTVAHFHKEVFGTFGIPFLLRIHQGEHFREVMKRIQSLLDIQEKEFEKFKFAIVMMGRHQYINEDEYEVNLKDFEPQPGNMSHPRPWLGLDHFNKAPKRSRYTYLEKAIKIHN

This assay addresses USP7 (Homo sapiens, UniProt Q93009). As to the kind of experiment: USP7 inhibitory potency (Table 1). It counts as biochemical.
The term IC50 denotes the concentration at which inhibition is half-maximal. A lower IC50 goes with greater potency in that assay. For `C[C@@H]1CNCCN1C(=O)C1Cc2cc(Cl)cc(-c3ccnc4[nH]ccc34)c2O1` (stereo partly drawn) [(5-chloro-7-(1H-pyrrolo[2,3-b]pyridin-4-yl)-2,3-dihydrobenzofuran-2-yl)((R)-2-methylpiperazin-1-yl)methanone], the IC50 was in the range of 10 to 30 µM.
`O=C(C1Cc2cc(Cl)cc(-c3ccnc4[nH]ccc34)c2O1)N1CCN[C@@H](CO)C1` (stereo partly drawn) [(5-chloro-7-(1H-pyrrolo[2,3-b]pyridin-4-yl)-2,3-dihydrobenzofuran-2-yl)((R)-3-(hydroxymethyl)piperazin-1-yl)methanone]: the 50% inhibitory concentration (IC50) is 1 to 10 µM.
In the case of `C[C@@H]1CN(C(=O)C2Cc3cc(Cl)cc(-c4ccnc5[nH]ccc45)c3O2)CCN1` (stereo partly drawn) [(5-chloro-7-(1H-pyrrolo[2,3-b]pyridin-4-yl)-2,3-dihydrobenzofuran-2-yl)((R)-3-methylpiperazin-1-yl)methanone] it was 1 to 10 µM; in that of `C[C@H]1CNCCN1C(=O)C1Cc2cc(Cl)cc(-c3ccnc4[nH]ccc34)c2O1` (stereo partly drawn) [(5-chloro-7-(1H-pyrrolo[2,3-b]pyridin-4-yl)-2,3-dihydrobenzofuran-2-yl)((S)-2-methylpiperazin-1-yl)methanone], 1 to 10 µM; in that of `O=C(C1Cc2cc(Cl)cc(-c3ccnc4[nH]ccc34)c2O1)N1CCN[C@H](CO)C1` (stereo partly drawn) [(5-chloro-7-(1H-pyrrolo[2,3-b]pyridin-4-yl)-2,3-dihydrobenzofuran-2-yl)((S)-3-(hydroxymethyl)piperazin-1-yl)methanone], 1 to 10 µM.
For `C[C@H]1CN(C(=O)C2Cc3cc(Cl)cc(-c4ccnc5[nH]ccc45)c3O2)CCN1` (stereo partly drawn) [(5-chloro-7-(1H-pyrrolo[2,3-b]pyridin-4-yl)-2,3-dihydrobenzofuran-2-yl)((S)-3-methylpiperazin-1-yl)methanone], the IC50 was in the range of 1 to 10 µM.
In the case of `O=C(C1Cc2cc(Cl)cc(-c3ccnc4[nH]ccc34)c2O1)N1CCNCC1` (stereo not shown) [(5-chloro-7-(1H-pyrrolo[2,3-b]pyridin-4-yl)-2,3-dihydrobenzofuran-2-yl)(piperazin-1-yl)methanone] it was below 1 µM; in that of `O=C(C1CCNCC1)C1Cc2cc(Cl)cc(-c3ccnc4[nH]ccc34)c2O1` (stereo not shown) [(5-chloro-7-(1H-pyrrolo[2,3-b]pyridin-4-yl)-2,3-dihydrobenzofuran-2-yl)(piperidin-4-yl)methanone], 1 to 10 µM; in that of `O=C(C1Cc2cc(Cl)cc(-c3ccnc4cc[nH]c34)c2O1)N1CCNCC1` (stereo not shown) [(5-chloro-7-(1H-pyrrolo[3,2-b]pyridin-7-yl)-2,3-dihydrobenzofuran-2-yl)(piperazin-1-yl)methanone], 1 to 10 µM.
For the compound `O=C(C1Cc2cc(Cl)cc(-c3ccnc(NCCO)c3)c2O1)N1CCNCC1` (stereo not shown) [(5-chloro-7-(2-((2-hydroxyethyl)amino)pyridin-4-yl)-2,3-dihydrobenzofuran-2-yl)(piperazin-1-yl)methanone], the IC50 is 1 to 10 µM.
Then `C[C@H](O)c1cc2c(-c3cc(Cl)cc4c3OC(C(=O)N3CCNCC3)C4)ccnc2[nH]1` (stereo partly drawn) [(5-chloro-7-(2-((S)-1-hydroxyethyl)-1H-pyrrolo[2,3-b]pyridin-4-yl)-2,3-dihydrobenzofuran-2-yl)(piperazin-1-yl)methanone], with 1 to 10 µM; and `O=C(C1Cc2cc(Cl)cc(-c3ccnc4[nH]c(CO)cc34)c2O1)N1CCNCC1` (stereo not shown) [(5-chloro-7-(2-(hydroxymethyl)-1H-pyrrolo[2,3-b]pyridin-4-yl)-2,3-dihydrobenzofuran-2-yl)(piperazin-1-yl)methanone], with below 1 µM; and `O=C(C1Cc2cc(Cl)cc(-c3ccnc4[nH]c(Cc5cc6ccccc6cn5)cc34)c2O1)N1CCNCC1` (stereo not shown) [(5-chloro-7-(2-(isoquinolin-3-ylmethyl)-1H-pyrrolo[2,3-b]pyridin-4-yl)-2,3-dihydrobenzofuran-2-yl)(piperazin-1-yl)methanone], with 1 to 10 µM.
In the case of `O=C(C1Cc2cc(Cl)cc(-c3ccnc(Nc4ccccc4)c3)c2O1)N1CCNCC1` (stereo not shown) [(5-chloro-7-(2-(phenylamino)pyridin-4-yl)-2,3-dihydrobenzofuran-2-yl)(piperazin-1-yl)methanone] it was 10 to 30 µM; in that of `O=C(C1Cc2cc(Cl)cc(-c3ccnc4[nH]c(Cc5cccnc5)cc34)c2O1)N1CCNCC1` (stereo not shown) [(5-chloro-7-(2-(pyridin-3-ylmethyl)-1H-pyrrolo[2,3-b]pyridin-4-yl)-2,3-dihydrobenzofuran-2-yl)(piperazin-1-yl)methanone], 1 to 10 µM.
Then `O=C(C1Cc2cc(Cl)cc(-c3ccnc4[nH]c(C5CC5)cc34)c2O1)N1CCNCC1` (stereo not shown) [(5-chloro-7-(2-cyclopropyl-1H-pyrrolo[2,3-b]pyridin-4-yl)-2,3-dihydrobenzofuran-2-yl)(piperazin-1-yl)methanone], with 10 to 30 µM.
The compound `O=C(C1Cc2cc(Cl)cc(-c3ccnc(O)c3)c2O1)N1CCNCC1` (stereo not shown) [(5-chloro-7-(2-hydroxypyridin-4-yl)-2,3-dihydrobenzofuran-2-yl)(piperazin-1-yl)methanone] had an IC50 of 1 to 10 µM.
Then `O=C(C1Cc2cc(Cl)cc(-c3ccnc4[nH]c(-c5ccccc5)cc34)c2O1)N1CCNCC1` (stereo not shown) [(5-chloro-7-(2-phenyl-1H-pyrrolo[2,3-b]pyridin-4-yl)-2,3-dihydrobenzofuran-2-yl)(piperazin-1-yl)methanone], with 10 to 30 µM; and `Cc1c[nH]c2nccc(-c3cc(Cl)cc4c3OC(C(=O)N3CCNCC3)C4)c12` (stereo not shown) [(5-chloro-7-(3-methyl-1H-pyrrolo[2,3-b]pyridin-4-yl)-2,3-dihydrobenzofuran-2-yl)(piperazin-1-yl)methanone], with 1 to 10 µM; and `O=C(C1Cc2cc(Cl)cc(-c3ccnc4c3CCCC4)c2O1)N1CCNCC1` (stereo not shown) [(5-chloro-7-(5,6,7,8-tetrahydroquinolin-4-yl)-2,3-dihydrobenzofuran-2-yl)(piperazin-1-yl)methanone], with below 1 µM.
Then `O=C(C1Cc2cc(Cl)cc(-c3ccnc4c3CCC4)c2O1)N1CCNCC1` (stereo not shown) [(5-chloro-7-(6,7-dihydro-5H-cyclopenta[b]pyridin-4-yl)-2,3-dihydrobenzofuran-2-yl)(piperazin-1-yl)methanone], with below 1 µM.
Then `O=C(C1Cc2cc(Cl)cc(-c3ccnc4ccc(Cl)cc34)c2O1)N1CCNCC1` (stereo not shown) [(5-chloro-7-(6-chloroquinolin-4-yl)-2,3-dihydrobenzofuran-2-yl)(piperazin-1-yl)methanone], with 10 to 30 µM.
The compound `O=C(C1Cc2cc(Cl)cc(-c3ccnc4ccc(F)cc34)c2O1)N1CCNCC1` (stereo not shown) [(5-chloro-7-(6-fluoroquinolin-4-yl)-2,3-dihydrobenzofuran-2-yl)(piperazin-1-yl)methanone] showed an IC50 of 1 to 10 µM.
The compound `COc1ccc2nccc(-c3cc(Cl)cc4c3OC(C(=O)N3CCNCC3)C4)c2c1` (stereo not shown) [(5-chloro-7-(6-methoxyquinolin-4-yl)-2,3-dihydrobenzofuran-2-yl)(piperazin-1-yl)methanone] registered an IC50 of 10 to 30 µM.
`O=C(C1Cc2cc(Cl)cc(-c3ccnc4cc(CO)ccc34)c2O1)N1CCNCC1` (stereo not shown) [(5-chloro-7-(7-(hydroxymethyl)quinolin-4-yl)-2,3-dihydrobenzofuran-2-yl)(piperazin-1-yl)methanone] returned an IC50 of 1 to 10 µM.
Consider `O=C(C1Cc2cc(Cl)cc(-c3ccnc4cc(C(F)(F)F)ccc34)c2O1)N1CCNCC1` (stereo not shown) [(5-chloro-7-(7-(trifluoromethyl)quinolin-4-yl)-2,3-dihydrobenzofuran-2-yl)(piperazin-1-yl)methanone], for which the IC50 is 1 to 10 µM.
In the case of `COc1ccc2c(-c3cc(Cl)cc4c3OC(C(=O)N3CCNCC3)C4)ccnc2c1` (stereo not shown) [(5-chloro-7-(7-methoxyquinolin-4-yl)-2,3-dihydrobenzofuran-2-yl)(piperazin-1-yl)methanone] it was 1 to 10 µM.
Take `O=C(C1Cc2cc(Cl)cc(-c3ccnc4c(F)cccc34)c2O1)N1CCNCC1` (stereo not shown) [(5-chloro-7-(8-fluoroquinolin-4-yl)-2,3-dihydrobenzofuran-2-yl)(piperazin-1-yl)methanone]: the IC50 lay in the range of 10 to 30 µM.
As for `COc1cccc2c(-c3cc(Cl)cc4c3OC(C(=O)N3CCNCC3)C4)ccnc12` (stereo not shown) [(5-chloro-7-(8-methoxyquinolin-4-yl)-2,3-dihydrobenzofuran-2-yl)(piperazin-1-yl)methanone], the IC50 fell in the range of 10 to 30 µM.
Then `O=C(C1Cc2cc(Cl)cc(-c3ccnc4ccccc34)c2O1)N1CCNCC1` (stereo not shown) [(5-chloro-7-(quinolin-4-yl)-2,3-dihydrobenzofuran-2-yl)(piperazin-1-yl)methanone], with 1 to 10 µM.
In the case of `O=C(C1Cc2cc(Cl)cc(-c3ccnc4c3ccn4Cc3ccccc3)c2O1)N1CCNCC1` (stereo not shown) [(7-(1-Benzyl-1H-pyrrolo[2,3-b]pyridin-4-yl)-5-chloro-2,3-dihydrobenzofuran-2-yl)(piperazin-1-yl)methanone] it was 10 to 30 µM; in that of `O=C(C1Cc2cc(Cl)cc(-c3ccnc(NCc4ccccc4)c3)c2O1)N1CCNCC1` (stereo not shown) [(7-(2-(benzylamino)pyridin-4-yl)-5-chloro-2,3-dihydrobenzofuran-2-yl)(piperazin-1-yl)methanone], 1 to 10 µM; in that of `Nc1cc(-c2cc(Cl)cc3c2OC(C(=O)N2CCNCC2)C3)ccn1` (stereo not shown) [(7-(2-Aminopyridin-4-yl)-5-chloro-2,3-dihydrobenzofuran-2-yl)(piperazin-1-yl)methanone], 1 to 10 µM.
Take `Nc1nccc(-c2cc(Cl)cc3c2OC(C(=O)N2CCNCC2)C3)c1Cl` (stereo not shown) [(7-(2-amino-3-chloropyridin-4-yl)-5-chloro-2,3-dihydrobenzofuran-2-yl)(piperazin-1-yl)methanone]: the IC50 was 1 to 10 µM.
In the case of `Cc1c(-c2cc(Cl)cc3c2OC(C(=O)N2CCNCC2)C3)ccnc1N` (stereo not shown) [(7-(2-amino-3-methylpyridin-4-yl)-5-chloro-2,3-dihydrobenzofuran-2-yl)(piperazin-1-yl)methanone] it was 1 to 10 µM; in that of `O=C(C1Cc2cc(Cl)cc(-c3ccnc4[nH]c(Cc5ccccc5)cc34)c2O1)N1CCNCC1` (stereo not shown) [(7-(2-benzyl-1H-pyrrolo[2,3-b]pyridin-4-yl)-5-chloro-2,3-dihydrobenzofuran-2-yl)(piperazin-1-yl)methanone], 1 to 10 µM.
The compound `OCc1cc2nccc(-c3cc(Cl)cc4c3OC(c3nnn5c3CNCC5)C4)c2s1` (stereo not shown) [(7-(5-chloro-2-(4,5,6,7-tetrahydro-[1,2,3]triazolo[1,5-a]pyrazin-3-yl)-2,3-dihydrobenzofuran-7-yl)thieno[3,2-b]pyridin-2-yl)methanol] displayed an IC50 of 1 to 10 µM.
